This assay has as its target hCFTR (human CFTR) (Homo sapiens, UniProt P13569). As to the kind of experiment: inside-out oocyte macropatch current. In kind it is biochemical. The settings on record: 1 mM ATP and PKA 127.6 U/mL; potentiator.

We go through one compound from article PMC7665244 (Developmental cell, 2019).

Structures are written as SMILES.

hCFTR (human CFTR), sequence (P13569 whole entry): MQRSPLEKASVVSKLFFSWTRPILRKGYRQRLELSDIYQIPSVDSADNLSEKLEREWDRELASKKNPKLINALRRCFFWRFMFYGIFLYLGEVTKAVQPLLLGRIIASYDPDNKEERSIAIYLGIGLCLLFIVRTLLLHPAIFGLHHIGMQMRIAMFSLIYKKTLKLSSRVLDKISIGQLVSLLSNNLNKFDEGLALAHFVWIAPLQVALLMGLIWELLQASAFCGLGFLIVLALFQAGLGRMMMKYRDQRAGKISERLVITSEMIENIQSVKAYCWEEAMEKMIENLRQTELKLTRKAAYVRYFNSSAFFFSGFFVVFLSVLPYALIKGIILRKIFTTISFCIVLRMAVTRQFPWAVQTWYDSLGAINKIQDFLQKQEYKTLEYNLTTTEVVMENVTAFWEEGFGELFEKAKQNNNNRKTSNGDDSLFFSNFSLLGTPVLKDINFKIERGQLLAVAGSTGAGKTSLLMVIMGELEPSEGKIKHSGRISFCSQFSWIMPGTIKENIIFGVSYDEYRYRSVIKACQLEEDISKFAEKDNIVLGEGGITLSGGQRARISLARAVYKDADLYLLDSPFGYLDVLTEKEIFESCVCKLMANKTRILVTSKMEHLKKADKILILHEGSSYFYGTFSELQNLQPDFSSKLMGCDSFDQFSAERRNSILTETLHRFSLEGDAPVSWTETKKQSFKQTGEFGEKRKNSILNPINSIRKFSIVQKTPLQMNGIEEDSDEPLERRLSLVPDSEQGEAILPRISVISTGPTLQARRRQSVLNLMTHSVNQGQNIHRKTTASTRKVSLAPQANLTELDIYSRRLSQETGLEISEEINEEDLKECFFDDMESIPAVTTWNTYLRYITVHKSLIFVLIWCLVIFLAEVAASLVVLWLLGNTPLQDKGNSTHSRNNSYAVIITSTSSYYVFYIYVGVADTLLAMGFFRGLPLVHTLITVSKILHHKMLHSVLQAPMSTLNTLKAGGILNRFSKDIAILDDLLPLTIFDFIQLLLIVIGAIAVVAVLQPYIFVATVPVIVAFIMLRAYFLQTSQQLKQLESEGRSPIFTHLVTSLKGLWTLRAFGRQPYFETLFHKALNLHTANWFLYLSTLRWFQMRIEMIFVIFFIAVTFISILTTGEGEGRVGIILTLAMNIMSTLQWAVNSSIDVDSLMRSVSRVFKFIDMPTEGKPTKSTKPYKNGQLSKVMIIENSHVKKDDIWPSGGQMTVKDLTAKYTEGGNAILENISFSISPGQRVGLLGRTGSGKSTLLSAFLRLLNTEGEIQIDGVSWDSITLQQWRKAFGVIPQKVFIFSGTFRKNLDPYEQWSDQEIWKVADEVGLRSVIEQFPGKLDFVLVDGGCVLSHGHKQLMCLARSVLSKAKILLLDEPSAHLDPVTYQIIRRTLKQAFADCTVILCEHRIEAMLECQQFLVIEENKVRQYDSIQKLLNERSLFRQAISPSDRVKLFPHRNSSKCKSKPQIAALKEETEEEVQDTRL

As for `CC(C)(C)c1cc(C(C)(C)C)c(NC(=O)c2c[nH]c3ccccc3c2=O)cc1O` [VX-770], the “fractional potentiation at 0.2 μM” value is listed as “although hCFTR is potentiated, Lp-CFTR shows no enhancement of function”.
